One assay has as its system SARS-CoV-2 strain USA-WA1/2020. The assay can be described thus: microbe, parasite or virus in culture. It counts as cell-based. The conditions noted are these: Severe acute respiratory syndrome coronavirus 2, HeLa-ACE2, 24 h, HeLa-ACE2 cells, SARS-CoV-2 infection, 24 h; given as bound; read-out: EC50, uM (Hela).
For orientation: EC50 means the concentration giving half of the maximal effect. For the compound `CC(C)(C)NC(=O)C(=O)N1C[C@H]2C[C@]1(C(=O)N[C@@H](C[C@@H]1CCNC1=O)C(=O)COC(F)(F)F)C2` [Compound 560, (1s,4R)-2-(2-(tert-butylamino)-2-oxoacetyl)-N-((S)-3-oxo-1-((S)-2-oxopyrrolidin-3-yl)-4-(trifluoromethoxy)butan-2-yl)-2-azabicyclo-[2.1.1]hexane-1-carboxamide], the EC50 was > 1 µM. Still for that read-out and setting: under `O=C(Nc1ccccc1F)C(=O)N1C[C@H]2C[C@]1(C(=O)N[C@@H](C[C@@H]1CCNC1=O)C(=O)COC(F)(F)F)C2` [Compound 562, (1 s,4R)-2-(2-((2-fluorophenyl)amino)-2-oxoacetyl)-N-((S)-3-oxo-1-((S)-2-oxopyrrolidin-3-yl)-4-(trifluoromethoxy)butan-2-yl)-2-azabicyclo-[2.1.1]hexane-1-carboxamide] stands > 1 µM; under `COC(=O)C(=O)N1C[C@@H]2CCC[C@@H]2[C@H]1C(=O)N[C@@H](C[C@@H]1CCNC1=O)C(=O)COC(F)(F)F` [Compound 569, methyl 2-oxo-2-((1S,3aR,6aS)-1-(((S)-3-oxo-1-((S)-2-oxopyrrolidin-3-yl)-4-(trifluoromethoxy)butan-2-yl)carbamoyl)-hexahydrocyclo-penta[c]-pyrrol-2(1H)-yl)acetate], > 1 µM. `O=C(NC12CC(F)(C1)C2)C(=O)N[C@]1(C(=O)N[C@@H](C[C@@H]2CCNC2=O)C(=O)COC(F)(F)F)C[C@H]1C1CC1` [Compound 579, N1-(3-fluorobicyclo-[1.1.1]pentan-1-yl)-N2-((1S,2R)-2-(((S)-3-oxo-1-((S)-2-oxopyrrolidin-3-yl)-4-(trifluoromethoxy)butan-2-yl)carbamoyl)-[1,1′-bi(cyclopropan)]-2-yl)oxalamide]: the EC50 is > 1 µM. `C[C@@]12C[C@@H](C(=O)N[C@@H](C[C@@H]3CCNC3=O)C(=O)COC(F)(F)F)N(C(=O)C(=O)Nc3ccccc3F)[C@@H]1C2` [Compound 581, (1R, 3S, 5R)-2-(2-((2-fluorophenyl)amino)-2-oxoacetyl)-5-methyl-N-((S)-3-oxo-1-((S)-2-oxopyrrolidin-3-yl)-4-(trifluoromethoxy)butan-2-yl)-2-azabicyclo-[3.1.0]hexane-3-carboxamide]: the EC50 was > 1 µM.

The same assay, now with this note: Severe acute respiratory syndrome coronavirus 2, HeLa-ACE2, 24 h, HeLa-ACE2 cells, SARS-CoV-2 infection, 24 h; read-out: EC50, uM (Hela).
For the compound `CC(C)(C)NC(=O)C(=O)N1C[C@@H]2CC[C@@H]2[C@H]1C(=O)N[C@@H](C[C@@H]1CCNC1=O)C(=O)COC(F)(F)F` [Compound 561, (1S,2S,5R)-3-(2-(tert-butylamino)-2-oxoacetyl)-N-((S)-3-oxo-1-((S)-2-oxopyrrolidin-3-yl)-4-(trifluoromethoxy)butan-2-yl)-3-azabicyclo-[3.2.0]heptane-2-carboxamide], the EC50 was 0.2 to 0.5 µM. For `O=C(Nc1ccccc1F)C(=O)N1C[C@@H]2CC[C@@H]2[C@H]1C(=O)N[C@@H](C[C@@H]1CCNC1=O)C(=O)COC(F)(F)F` [Compound 563, (1S,2S, 5R)-3-(2-((2-fluorophenyl)amino)-2-oxoacetyl)-N-((S)-3-oxo-1-((S)-2-oxopyrrolidin-3-yl)-4-(trifluoromethoxy)butan-2-yl)-3-azabicyclo-[3.2.0]heptane-2-carboxamide], the EC50 is 0.05 to 0.2 µM. On to `CC(C)(C[C@H](NC(=O)C(=O)NC12CC(F)(C1)C2)C(=O)N[C@@H](C[C@@H]1CCNC1=O)C(=O)COC(F)(F)F)C(F)F` [Compound 564, N1-((S)-5,5-difluoro-4,4-dimethyl-1-oxo-1-(((S)-3-oxo-1-((S)-2-oxopyrrolidin-3-yl)-4-(trifluoromethoxy)butan-2-yl)amino)pentan-2-yl)-N2-(3-fluorobicyclo[1.1.1]-pentan-1-yl)oxalamide], for which the EC50 is < 0.05 µM. In the case of `O=C(N[C@@H](CC1CCC1)C(=O)N[C@@H](C[C@@H]1CCNC1=O)C(=O)COC(F)(F)F)C(=O)NC12CC(F)(C1)C2` [Compound 565, N1-((S)-3-cyclobutyl-1-oxo-1-(((S)-3-oxo-1-((S)-2-oxopyrrolidin-3-yl)-4-(trifluoromethoxy)butan-2-yl)amino)propan-2-yl)-N2-(3-fluorobicyclo[1.1.1]-pentan-1-yl)oxalamide], the EC50 was < 0.05 µM. Still for that read-out and setting: the value for `CC(C)(C#N)NC(=O)C(=O)N1C[C@@H]2CCC[C@@H]2[C@H]1C(=O)N[C@@H](C[C@@H]1CCNC1=O)C(=O)COC(F)(F)F` [Compound 566, (1S,3aR,6aS)-2-(2-((2-cyanopropan-2-yl)amino)-2-oxoacetyl)-N-((S)-3-oxo-1-((S)-2-oxopyrrolidin-3-yl)-4-(trifluoromethoxy)butan-2-yl)octahydrocyclo-penta[c]pyrrole-1-carboxamide] was 0.05 to 0.2 µM; that for `CC(C)(C)NC(=O)C(=O)N1CCC[C@@]1(CC1CC1)C(=O)N[C@@H](C[C@@H]1CCNC1=O)C(=O)COC(F)(F)F` [Compound 567, (R)-1-(2-(tert-butylamino)-2-oxoacetyl)-2-(cyclopro-pylmethyl)-N-((S)-3-oxo-1-((S)-2-oxopyrrolidin-3-yl)-4-(trifluoromethoxy)butan-2-yl)pyrrolidine-2-carboxamide] was 0.2 to 0.5 µM; that for `CC1(C)CCc2onc(C(=O)N3CC4(CC4)C[C@H]3C(=O)N[C@@H](C[C@@H]3CCNC3=O)C(=O)COC(F)(F)F)c2C1` [Compound 568, (S)-5-(5,5-dimethyl-4,5,6,7-tetrahydro-benzo[d]isoxazole-3-carbonyl)-N-((S)-3-oxo-1-((S)-2-oxopyrrolidin-3-yl)-4-(trifluoromethoxy)butan-2-yl)-5-azaspiro[2.4]-heptane-6-carboxamide] was 0.05 to 0.2 µM. With `O=C(NCC(F)(F)F)C(=O)N1CC2(CC2)C[C@H]1C(=O)N[C@@H](C[C@@H]1CCNC1=O)C(=O)COC(F)(F)F` [Compound 570], the EC50 was in the range of 0.05 to 0.2 µM. For `CC1(NC(=O)C(=O)N2CC3(CC3)C[C@H]2C(=O)N[C@@H](C[C@@H]2CCNC2=O)C(=O)COC(F)(F)F)CC1` [Compound 571, (S)-5-(2-((l-methylcyclopropyl)-amino)-2-oxoacetyl)-N-((S)-3-oxo-1-((S)-2-oxopyrrolidin-3-yl)-4-(trifluoromethoxy)butan-2-yl)-5-azaspiro[2.4]-heptane-6-carboxamide], the EC50 is 0.05 to 0.2 µM.

On to `O=C1NCC[C@H]1C[C@H](NC(=O)[C@@H]1CC2(CC2)CN1C(=O)c1cc(C(F)F)on1)C(=O)COC(F)(F)F` [Compound 572, (S)-5-(5-(difluoromethyl)-isoxazole-3-carbonyl)-N-((S)-3-oxo-1-((S)-2-oxopyrrolidin-3-yl)-4-(trifluoromethoxy)butan-2-yl)-5-azaspiro[2.4]-heptane-6-carboxamide], for which the EC50 was < 0.05 µM. Turning to `CC1(C[C@H](NC(=O)C(=O)NC23CC(F)(C2)C3)C(=O)N[C@@H](C[C@@H]2CCNC2=O)C(=O)COC(F)(F)F)CCC1` [Compound 573, N1-(3-fluorobicyclo[1.1.1]pentan-1-yl)-N2-((S)-3-(1-methylcyclobutyl)-1-oxo-1-(((S)-3-oxo-1-((S)-2-oxopyrrolidin-3-yl)-4-(trifluoromethoxy)butan-2-yl)amino)propan-2-yl)oxalamide], the EC50 is < 0.05 µM. With `CC(C)(C)NC(=O)C(=O)N1C[C@@H]2CCC[C@@H]2[C@H]1C(=O)N[C@@H](Cc1ccc[nH]c1=O)C(=O)COC(F)(F)F` [Compound 574, (1S,3aR,6aS)-2-(2-(tert-butylamino)-2-oxoacetyl)-N-((S)-3-oxo-1-(2-oxo-1,2-dihydropyridin-3-yl)-4-(trifluoromethoxy)butan-2-yl)octahydrocyclo-penta[c]pyrrole-1-carboxamide], the EC50 fell in the range of 0.5 to 1 µM. Turning to `COc1ccccc1NC(=O)C(=O)N1CC2(CC2)C[C@H]1C(=O)N[C@@H](C[C@@H]1CCNC1=O)C(=O)COC(F)(F)F` [Compound 575, (S)-5-(2-((2-methoxyphenyl)-amino)-2-oxoacetyl)-N-((S)-3-oxo-1-((S)-2-oxopyrrolidin-3-yl)-4-(trifluoromethoxy)butan-2-yl)-5-azaspiro[2.4]-heptane-6-carboxamide], the EC50 was 0.5 to 1 µM.

Consider `O=C(Nc1ccccc1C(F)(F)F)C(=O)N1CC2(CC2)C[C@H]1C(=O)N[C@@H](C[C@@H]1CCNC1=O)C(=O)COC(F)(F)F` [Compound 576, (S)-N-((S)-3-oxo-1-((S)-2-oxopyrrolidin-3-yl)-4-(trifluoromethoxy)butan-2-yl)-5-(2-oxo-2-((2-(trifluoromethyl)-phenyl)amino)acetyl)-5-azaspiro[2.4]-heptane-6-carboxamide], for which the EC50 is < 0.05 µM. For `CC1(C[C@H](NC(=O)C(=O)NC2(C)CC2)C(=O)N[C@@H](C[C@@H]2CCNC2=O)C(=O)COC(F)(F)F)CC1` [Compound 577, Nl-(l-methylcyclo-propyl)-N2-(3-(1-methylcyclopropyl)-1-oxo-1-(((S)-3-oxo-1-((S)-2-oxopyrrolidin-3-yl)-4-(trifluoromethoxy)butan-2-yl)amino)propan-2-yl)oxalamide], the EC50 was < 0.05 µM.

Consider `CC1(CC(NC(=O)C(=O)NC2CC2)C(=O)N[C@@H](C[C@@H]2CCNC2=O)C(=O)COC(F)(F)F)CC1` (stereo partly drawn) [Compound 578, N1-cyclopropyl-N2-(3-(1-methylcyclopropyl)-1-oxo-1-(((S)-3-oxo-1-((S)-2-oxopyrrolidin-3-yl)-4-(trifluoromethoxy)butan-2-yl)amino)propan-2-yl)oxalamide], for which the EC50 is < 0.05 µM. As for `CC(C)C[C@H](NC(=O)c1ncon1)C(=O)N[C@@H](C[C@@H]1CCNC1=O)C(=O)COC(F)(F)F` [Compound 580, N-((S)-4-methyl-1-oxo-1-(((S)-3-oxo-1-((S)-2-oxopyrrolidin-3-yl)-4-(trifluoromethoxy)butan-2-yl)amino)pentan-2-yl)-1,2,4-oxadiazole-3-carboxamide], the EC50 fell in the range of 0.2 to 0.5 µM. Take `CC1(C[C@H](NC(=O)C(=O)NC23CC(F)(C2)C3)C(=O)N[C@@H](C[C@@H]2CCNC2=O)C(=O)COC(F)(F)F)CC1` [Compound 582, N1-(3-fluorobicyclo-[1.1.1]pentan-1-yl)-N2-((S)-3-(l-methyl-cyclopropyl)-1-oxo-1-(((S)-3-oxo-1-((S)-2-oxopyrrolidin-3-yl)-4-(trifluoromethoxy)butan-2-yl)amino)propan-2-yl)oxalamide]: the EC50 was < 0.05 µM.

These data come from patent publication US11708348B2, “Protease inhibitors for treatment of coronavirus infections” (The Scripps Research Institute, priority 2021, dated 2023).
